This is an account of results in ChEMBL document CHEMBL1201862, “PubChem BioAssay data set” (2004).

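Values below derive from 48-hour exposures of cells grown in 96-well plates, with endpoints linearly interpolated between the two concentrations bracketing the appropriate inhibition level. Here, GI50 denotes the concentration required for 50% inhibition of growth.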 The source made the active and inactive calls. Rule as the data show it: active = GI50 up to about 1.1 µM and inactive = higher. Where a SMILES comes first, the peptide text is derived from it. [ ]: non-standard residue; d: D form. Phe(4-Cl) = N[CH](Cc1ccc(Cl)cc1)C(=O)O

Holding throughout (assay): inhibition of tumour cell growth, NCI panel, 48 h
Assay [1] deals with DMS-114.
In assay [2] the test system is DMS-273.
Assay [3] has as its system HOP-18.
Assay [4] deals with LXFL 529.
In assay [5] the test system is SNB-78.
Assay [6] relates to KM-20L2.
The test system of assay [7] is M19-MEL.
Assay [8] concerns RXF 631.
Assay [9] deals with XF498.

As to `COC1=CC2(C=CC1=O)c1cc(OC)c(OC)cc1CCN2C(=O)c1ccccc1` (configuration not stated), the GI50 in [1] is > 100 µM (inactive); in assay [2] it was > 100 µM (inactive); in [3], 98.2 µM (inactive); in assay [4] it was > 100 µM (inactive); in assay [5], > 100 µM (inactive).

As for `CS(=O)(=O)NNS(=O)(=O)c1ccc(Cl)cc1`, the GI50 in assay [1], in assay [2], in assay [6], in [4], in assay [7] and in [8] was > 100 µM (inactive) each time. Besides, the GI50 in [9] was > 100 µM (inactive).

With `CCCCC#COP(=O)(OCC)OCC`, the GI50 in [1], in assay [6], in [4], in assay [7], in [8] and in assay [5] was > 100 µM (inactive) in each case.

For `Cc1ccc2c(c1)C(c1cccc3ccccc13)OC2=O` (configuration not stated), the GI50 in assay [1] was > 100 µM (inactive); in assay [2], > 100 µM (inactive); in [3] it was 71.6 µM (inactive); in assay [6], > 100 µM (inactive); in [4], > 100 µM (inactive); in assay [7] it was > 100 µM (inactive). In assay [8], the GI50 was 27.7 µM (inactive).

In the case of `NC(=S)/N=C(/c1nc2ccc(Cl)cc2nc1O)C(O)c1ccccc1Cl` (configuration not stated), the GI50 in [1] was > 100 µM (inactive); in assay [2] it was > 100 µM (inactive); in assay [3], 33.8 µM (inactive); in [6], > 100 µM (inactive); in assay [4], > 100 µM (inactive); in [9], > 100 µM (inactive).

As to `COC(=O)C1(F)C(=O)NC(=O)NC1OC` (configuration not stated), the GI50 in assay [1] was 73.3 µM (inactive); in [2], 21.2 µM (inactive); in assay [3], 88.7 µM (inactive); in [6], 50.9 µM (inactive); in assay [7], 18.7 µM (inactive); in assay [5] it was > 100 µM (inactive). Besides, the GI50 in [9] was 67.1 µM (inactive).

On to `CC(O)C(NC(=O)C(Cc1ccccc1)NC(=O)C(NC(=O)C(CCCCN)NC(=O)C(Cc1c[nH]c2ccccc12)NC(=O)C(Cc1ccc(O)cc1)NC(=O)C(Cc1ccc(Cl)cc1)NC(=O)C(N)Cc1ccccc1)C(C)O)C(N)=O` (configuration not stated) (H-F[Phe(4-Cl)]YWKTFT-NH2; configuration not given here), for which the GI50 in [1] is 17.3 µM (inactive); in [2], 33 µM (inactive); in [6], 21.2 µM (inactive); in assay [4] it was 18.4 µM (inactive); in assay [7], 21.5 µM (inactive); in [8] it was 19.4 µM (inactive). Further, the values for the GI50 in assay [5] and in [9] were 25.4 µM (inactive) and 14.2 µM (inactive), respectively.

Regarding `CCN(CC)CCCC(C)Nc1c2ccc(Cl)cc2nc2ccc(OC)cc12` (configuration not stated), the GI50 is 1.7 µM (inactive) in assay [1]; 0.548 µM (active) in assay [2]; 1.33 µM (inactive) in assay [6]; 1.53 µM (inactive) in [4]; 1.76 µM (inactive) in [7]; 1.77 µM (inactive) in assay [8]. Besides, the GI50 in assay [5] was 3.23 µM (inactive); in assay [9], 1.73 µM (inactive).

With `Cc1ccc2ccc3ccc(C)nc3c2n1` [NEOCUPROINE], the GI50 is 0.388 µM (active) in assay [1]; 2.36 µM (inactive) in assay [2]; 63.4 µM (inactive) in [3]; 6.24 µM (inactive) in assay [6]; 0.679 µM (active) in [4]; 3.44 µM (inactive) in assay [7]. Also, in assay [5], the GI50 was > 100 µM (inactive).

For `CCOC(=O)c1c(-c2ccccc2)oc(-c2ccccc2)c1C(=O)OCC`, the GI50 in [1] was > 100 µM (inactive); in [2], > 100 µM (inactive); in assay [3], > 100 µM (inactive); in [6], 38.9 µM (inactive); in assay [4] it was 34.6 µM (inactive); in [7], 56.4 µM (inactive). Also, the GI50 in [5] is > 100 µM (inactive); in assay [9], 29.2 µM (inactive).

As for `CCCCCCCC1(c2ccc(N)cc2)CCC(=O)NC1=O` (configuration not stated), the GI50 was 24.2 µM (inactive) in assay [1]; 26.9 µM (inactive) in assay [2]; 33 µM (inactive) in assay [6]; 29.3 µM (inactive) in assay [4]; 37.8 µM (inactive) in assay [7]; 41 µM (inactive) in assay [8]. Moreover, the figures for the GI50 in assay [5] and in assay [9] were 31.6 µM (inactive) and 27.2 µM (inactive), respectively.

Take `CCCCCC1C2C(=O)NC(=O)C1C(=O)NC2=O` (configuration not stated): the GI50 in assay [1], in [2], in assay [6], in assay [4], in assay [7] and in assay [9] was > 100 µM (inactive) in each case.

On to `CC1=NN(C(=O)c2ccc(Cl)cc2)C(=O)/C1=C/c1ccc(O)cc1`, for which the GI50 in [1], in assay [6], in [4], in [7] and in assay [9] was > 100 µM (inactive) each time.

In the case of `CC(=O)Nc1ccc(C(=O)NN2C(=O)C(Cl)C2c2cc(Br)ccc2O)cc1` (configuration not stated), the GI50 was 4.41 µM (inactive) in assay [3], 14.4 µM (inactive) in [4] and 4.12 µM (inactive) in assay [7].

`O=c1c2ccc(Br)cc2nc(-c2ccccc2)n1NC1OC(CO)C(O)C(O)C1O` (configuration not stated): the GI50 in assay [1], in assay [2], in assay [3], in assay [6], in assay [4] and in [7] was > 100 µM (inactive) throughout. Also, the GI50 in assay [5] and in [9] was > 100 µM (inactive) in each case.

As to `CC1=C(c2cc(C(=O)Nc3cccc(C(F)(F)F)c3)nc(NC#N)n2)Sc2ccccc2N1`, the GI50 in assay [1], in assay [2], in assay [3], in [6], in assay [4] and in assay [7] was > 100 µM (inactive) throughout. For the same molecule, the GI50 in assay [8] and in assay [5] was > 100 µM (inactive) in each case.

`COc1ccc2c(c1)[n+]([O-])c(C(=O)CC(=O)C(=O)Nc1cccc(Cl)c1C)c(C)[n+]2[O-]`: the GI50 in assay [2] is > 100 µM (inactive); in assay [3], > 100 µM (inactive); in assay [6], > 100 µM (inactive); in [4], > 100 µM (inactive); in [7], 42.9 µM (inactive); in assay [5] it was > 100 µM (inactive).

For `CC(=O)OCC(=O)[C@@]1(O)CC[C@H]2[C@@H]3CCC4=CC(=O)[C@H](C)C[C@]4(C)[C@H]3[C@@H](O)C[C@@]21C`, the GI50 in assay [1] is > 100 µM (inactive); in assay [2], > 100 µM (inactive); in [3], > 100 µM (inactive); in [6], > 100 µM (inactive); in assay [7], > 100 µM (inactive); in assay [5], 9.77 µM (inactive). The GI50 in assay [9] was > 100 µM (inactive).

With `O=C[C@@H](CO)O[C@H](C=O)c1c[nH]c(=O)[nH]c1=O`, the GI50 was 37.6 µM (inactive) in assay [1]; > 81.5 µM (inactive) in [2]; 95.1 µM (inactive) in assay [3]; 84.3 µM (inactive) in [6]; 104 µM (inactive) in [7]; 133 µM (inactive) in assay [5]. The GI50 in [9] is 24.7 µM (inactive).
